Measurements published in patent US4061757A, “Compounds having juvenile hormone activity” (A/S Cheminova, priority 1971, dated 1977).

Key:
[1] = tested on: Drosophila melanogaster L; assay: Drosophila test (compound in agar based food, pupae which fail in ecdysis); format: in vivo; details: Table I, in artificial agar based food, pupae failing in ecdysis
Procedure: (§1) The biological tests are examplified by tests on the yellow mealworm, Tenebrio molitor L, Galleria mellonella L, Culex pipiens L, Aedes aegypti L and Drosophila melanogaster L.
Drosophila test: One ml of acetone solution of the compound to be tested is mixed with an artificial agar based food mixture just before this solidifies. Ten less than one day old adult flies -- five of each sex -- are added, and all abnormalities observed for two generations. Juvenile hormone activity is especially noted in the pupae which fail in ecdysis. EC50 -eclos. is given in ppm.

[2] = tested on: Aedes aegypti L; assay: Aedes test (same test as for Culex); format: in vivo; details: Table I, mature larvae, loss of 50% of test animals, read-out: IC-50 eclos
Procedure: as §1
Culex test: The compounds are tested on mature larvae. The concentration (IC-50 eclos.) is given in ppm.
Aedes test: The same test as for Culex.

[3] = tested on: Tenebrio molitor L; assay: Tenebrio test (topical application to pupae, morphological inhibition of adult characters); format: in vivo, Tenebrio molitor L (yellow mealworm); details: for ID-50 morph.: Table I, topical, acetone solution, 0.5 to 2 hours old pupae (150 mg), 27° C, 70% RH; for ID 50 morph.: Table II, compounds of the formula I, Tenebrio
Procedure: as §1
Tenebrio test: The material in question is applied topically to the abdomen of 0.5 to 2 hours old pupae of the said species, as a solution in acetone. The pupae are held at 27° C and 70% RH, ecdysis occuring 5 to 7 days later. The degree of inhibition of adult characters is referred to an arbitrary scale, where a morphologically perfect adult is given the character 0%, and a perfect second pupae 100%. In Table 1 is given the morphological inhibition dose 50% (ID 50 morph.) for some of the chemicals invented, in μg per standard pupa (150 mg). ID 50 morph. refers to specimens showing predominantly adult characters in the front part, pupal characters in the abdomen.
ID50 morph is as said above the dose causing development of individuals showing predominantly adult characters in the front part and pupal characters in the abdomen. It is known that ID50 -doses in general are 10 times greater than ED50 -doses.

[4] = tested on: Culex pipiens L; assay: Culex test (mature larvae, loss of 50% of test animals); format: in vivo; details: Table I, read-out: IC-50 eclos.
Procedure: The biological tests are examplified by tests on the yellow mealworm, Tenebrio molitor L, Galleria mellonella L, Culex pipiens L, Aedes aegypti L and Drosophila melanogaster L. Culex test: The compounds are tested on mature larvae. The concentration (IC-50 eclos.) is given in ppm.

Structure (SMILES) | EC-50 eclos [1] | IC50 (inhibition of eclosion) [2] | ID-50 morph. [3] | ID 50 morph. [3] | IC50 for inhibition of adult emergence (eclosion) [4]
CC(C)=CCC/C(C)=C/COc1ccc(C)nc1 [Compound 1, 3,7-dimethyl-1-(6'-methyl-3'-pyridyl-oxy)-2,6-octadiene] | > 100 ppm | 0.5 µg/mL | 0.02 μg/pupa | 0,02 μg/150 mg pupa | 0.5 µg/mL
C/C(=C\COc1ccc(C)nc1)CCC1OC1(C)C (stereo not shown) [Compound 2, 6,7-epoxy-3,7-dimethyl-1-(6'-methyl-3'-pyridyloxy)-2-octene] |  | 0.1 µg/mL | 0.002 μg/pupa |  | 
CCOC(C)(C)CCC/C(C)=C/COc1ccc(C)nc1 [Compound 3, 7-ethoxy-3,7-dimethyl-1-(6'-methyl-3'-pyridyloxy)-2-octene] |  |  | 0.001 μg/pupa |  | < 10 µg/mL
C/C(=C\COc1ccc(C)nc1)CCCC(C)(C)O [Compound 4, 7-hydroxy-3,7-dimethyl-1-(6'-methyl-3'-pyridyloxy)-2-octene] |  |  | 4.0 μg/pupa |  | 
CC(C)=CCC/C(C)=C/CNc1cccnc1 [Compound 5, N,3'-3,7-dimethyl-2,6-octadienyl-1-(3'-a-minopyridine)] |  |  | 40.0 μg/pupa |  | 10 µg/mL
CC(C)=CCCC(C)=CCOc1cccnc1 [Compound 6, 3,7-Dimethyl-1-(3'-pyridyloxy)-2,6-octadiene] |  |  | 3.0 μg/pupa |  | 
CCc1ccc(OCC=C(C)CCC=C(C)C)cn1 [Compound 7, 3,7-Dimethyl-1-(6'-ethyl-3'-pyridyloxy)-2,6-octadiene] | > 100 ppm |  | 0.005 μg/pupa |  | 0.05 µg/mL
CC(C)=CCCC(C)=CCOc1ccc(C(C)C)nc1 [Compound 8, 3,7-Dimethyl-1-(6'-isopropyl-3'-pyridyloxy)-2,6-octadiene] |  |  | 0.004 μg/pupa |  | 
COc1ccc(OCC=C(C)CCC=C(C)C)cn1 [Compound 9, 3,7-Dimethyl-1-(6'-methoxy-3'-pyridyloxy)-2,6-acetadiene] |  |  | 0.02 μg/pupa | 0,02 μg/150 mg pupa | 
CCC(C)=CCCC(=CCOc1ccc(C)nc1)CC [Compound 10, 3-Ethyl-7-methyl-1l-(6'-methyl-3'-pyridyloxy)-2,6-nonadiene] |  |  | 0.002 μg/pupa |  | 
CCC(C)=CCCC(=CCOc1ccc(CC)nc1)CC [Compound 11, 3-EThyl-7-methyl-1-(6'-ethyl-3'-pyridyloxy)-2,6-nonadiene] |  |  | 0.001 μg/pupa |  | 
CC(=CCOc1cccnc1)CCC1OC1(C)C (stereo not shown) [Compound 12, 6,7-Epoxy-3,7-dimethyl-1l-(3'-pyridyloxy)-2-ocetene] |  |  | 0.2 μg/pupa |  | 
CCc1ccc(OCC=C(C)CCC2OC2(C)C)cn1 (stereo not shown) [Compound 13, 6,7-Epoxy-3,7-dimethyl-1l-(6'-ethyl-3'-pyridyloxy)-2l-octene] | > 100 ppm | 0.1 µg/mL | 0.0001 μg/pupa |  | 0.005 µg/mL
CCC(=CCOc1ccc(C)nc1)CCC1OC1(C)CC (stereo not shown) [Compound 14, 6,7-Epoxu-3-ethyl-7-methyl-1-(6'-methyl-3'-pyridyloxy)-2-nonene] |  |  | 0.002 μg/pupa |  | 
CCC(=CCOc1ccc(CC)nc1)CCC1OC1(C)CC (stereo not shown) [Compound 15, 6,7 Epoxy-3-ethyl-7-methyl-1-(6'-ethyl-3'-pyridyloxy)-2l-nonene] |  |  | 0.0001 μg/pupa |  | 
CCOC(C)(C)CCCC(C)=CCOc1cccnc1 [Compound 16, 7-Ethoxy-3,7-dimethyl-1-(3'-pyridyloxy)-2-octene] |  |  | 0.009 μg/pupa |  | 
COc1ccc(NCC=C(C)CCC=C(C)C)cn1 [Compound 17, N, 3'-3,7-Dimethyl-2,6-octadienlyl-(6'methoxy-3'-aminopyridin)] |  |  | 0.4 μg/pupa |  | 
CCC(C)=CCCC(=CCOc1cccnc1)CC [Compound 18, 3-Ethyl-7-methyl-1-(3'-pyridyloxy)-2,6-nonadiene] |  |  | 0.2 μg/pupa |  | 
CCC(=CCOc1cccnc1)CCC1OC1(C)CC (stereo not shown) [Compound 19, 6,7-Epoxy-3-ethyl-7-methyl-1-(3'-pyridyloxy)-2-nonene] |  |  | 0.02 μg/pupa |  | 

Structure (SMILES) | EC-50 eclos [1] | IC50 (inhibition of eclosion) [2] | ID-50 morph. [3] | ID 50 morph. [3] | IC50 for inhibition of adult emergence (eclosion) [4]
COC(C)(C)CCCC(C)=CCOc1cccnc1 [Compound 20, 7-Methoxy-3,7-dimethyl-1l-(3'-pyridyloxy)-2-ocetene] |  |  | 1.0 μg/pupa |  | 
COC(C)(C)CCCC(C)=CCOc1ccc(C)nc1 [Compound 21, 7-Metoxy-3,7-dimethyl-1-(6'-methyl-3'-pyridyloxy)-2-octene] |  | 1 µg/mL | 1.0 μg/pupa |  | < 10 µg/mL
CCOC(C)(CC)CCCC(=CCOc1cccnc1)CC (stereo not shown) [Compound 22, 7-Ethoxy-3-ethyl-7-methyl-1-(3'-pyridyloxy)-2-nonene] |  |  | 0.01 μg/pupa |  | 
CCOC(C)(CC)CCCC(=CCOc1ccc(C)nc1)CC (stereo not shown) [Compound 23, 7-Ethoxy-3-ethyl-7-methyl-1l-(6'-methyl-3'-pyridyloxy)-2-nonene] |  |  | 0.001 μg/pupa |  | 0.5 µg/mL
CC(C)=CCCC(C)=CCOc1ccc(C)nc1[N+](=O)[O-] [Compound 24, 3,7-Dimethyl-1l-(2'-nitro-6'-methyl-3'-pyridyloxy)-2,6-octadiene] |  |  | 75. μg/pupa |  | > 10 µg/mL
CC(C)=CCCC(C)=CCOc1cccnc1CO [Compound 25, 3,7-Dimethyl-1-(2'-hydroxymethyl-3'-pyridyloxy)-2,6-octadiene] |  |  | 10. μg/pupa |  | 
CC(C)=CCCC(C)=CCOc1cccnc1C [Compound 26, 3,7 Dimethyl-1-(2'-methyl-3'-pyridyloxy)-2,6-octadiene] |  |  | 10. μg/pupa |  | 
CCOC(C)(C)CCCC(C)=CCOc1ccc(CC)nc1 [Compound 27, 7-Ethoxy-3,7-dimethyl-1-(6'-ethyl-3'-pyridyloxy)-2-octene] | > 100 ppm |  | 0.0001 μg/pupa |  | < 1 µg/mL
CCc1ccc(OCC=C(C)CCCC(C)(C)OC)cn1 [Compound 28, 7-Methoxy-3,7-dimethyl-1-(6'-ethyl-3'-pyridyloxy)-2-octene] |  |  | 0.001 μg/pupa |  | 
CCC(C)=CCCC(C)=CCOc1ccc(CC)nc1 [Compound 29, 3,7-Dimethyl-1-(6'-ethyl-3'-pyridyloxy)-2,6-nonadiene] | > 100 ppm |  | 0.02 μg/pupa |  | 
CCc1ccc(OCC=C(C)CCC2OC2(C)CC)cn1 (stereo not shown) [Compound 30, 6,7-Epoxy-3,7-dimethyl-1l-(6'-ethyl-3'-pyridyloxy)-2l-nonene] | > 100 ppm | 0.5 µg/mL | 0.0003 μg/pupa |  | < 10 µg/mL
CC(C)=CCCC(C)=CCOc1ccc(C)nc1CO [Compound 31, 3,7-Dimethyl-1-(2'-hydroxymethyl-6'-methyl-3'pyridyloxy)-2,6-octadiene] |  |  | 10 μg/pupa |  | > 10 µg/mL
CC(C)=CCCC(C)CCOc1cccnc1 (stereo not shown) [Compound 32, 3,7-Dimethyl-1-(3'-pyridyloxy)-6-octene] |  |  | 5. μg/pupa |  | 0.2 µg/mL
CC(C)=CCCC(C)CCOc1ccc(C)nc1 (stereo not shown) [Compound 34, 3,7-dimethyl-1-(6'-methyl-3'-pyridyloxy)-6-octene] |  |  | 0.4 μg/pupa |  | 0.5 µg/mL
Cc1ccc(OCCC(C)CCC2OC2(C)C)cn1 (stereo not shown) [Compound 35, 6,7-epoxy-3,7-dimethyl-1-(6'-methyl-3'pyridyloxy)-octane] |  |  | 0.05 μg/pupa |  | 
CCOC(C)(C)CCCC(C)CCOc1ccc(C)nc1 (stereo not shown) [Compound 36, 7-Ethoxy-3,7-dimethyl-1-(6'-methyl-3'-pyridyloxy)-octane] | > 100 ppm |  | 0.05 μg/pupa |  | 
CCc1ccc(OCCC(C)CCC=C(C)C)cn1 (stereo not shown) [Compound 37, 3,7-dimethyl-1-(6'-ethyl-3'-pyridyloxy)-6-octene] | > 100 ppm |  | 0.2 μg/pupa |  | 
CCc1ccc(OCCC(C)CCC2OC2(C)C)cn1 (stereo not shown) [Compound 38, 6,7-Epoxu-3,7-dimethyl-1l-(6'-ethyl-3'-pyridyloxy)-octane] | > 100 ppm | < 1 µg/mL | 0.005 μg/pupa |  | < 10 µg/mL
CCc1ccc(OCCC(C)CCCC(C)(C)OC)cn1 (stereo not shown) [Compound 40, 7-Methoxy-3,7-dimethyl-1l-(6'-ethyl-3'-pyridyloxy)-octane] | > 100 ppm |  | 0.02 μg/pupa |  | 
